# Results: ChEMBL document CHEMBL3132769, “Fragment growing to retain or alter the selectivity of anchored kinase hinge-binding fragments” (Medchemcomm, 2014)
# Legend:
# [1] = species on record: Homo sapiens; assay: Inhibition of human P70S6K catalytic domain expressed in baculovirus assessed as substrate phosphorylation using fluorescence-labelled peptides as substrate at 8 uM after 90 mins by microfluidic peptide phosphorylation assay
# [2] = target: Protein kinase C beta type (Homo sapiens) (UniProt P05771); assay: Inhibition of human full length PKC beta2 expressed in baculovirus assessed as substrate phosphorylation using fluorescence-labelled peptides as substrate at 0.06 uM after 90 mins by microfluidic peptide phosphorylation assay
# Chain of Protein kinase C beta type (Homo sapiens) (P05771 2-671 limits assumed): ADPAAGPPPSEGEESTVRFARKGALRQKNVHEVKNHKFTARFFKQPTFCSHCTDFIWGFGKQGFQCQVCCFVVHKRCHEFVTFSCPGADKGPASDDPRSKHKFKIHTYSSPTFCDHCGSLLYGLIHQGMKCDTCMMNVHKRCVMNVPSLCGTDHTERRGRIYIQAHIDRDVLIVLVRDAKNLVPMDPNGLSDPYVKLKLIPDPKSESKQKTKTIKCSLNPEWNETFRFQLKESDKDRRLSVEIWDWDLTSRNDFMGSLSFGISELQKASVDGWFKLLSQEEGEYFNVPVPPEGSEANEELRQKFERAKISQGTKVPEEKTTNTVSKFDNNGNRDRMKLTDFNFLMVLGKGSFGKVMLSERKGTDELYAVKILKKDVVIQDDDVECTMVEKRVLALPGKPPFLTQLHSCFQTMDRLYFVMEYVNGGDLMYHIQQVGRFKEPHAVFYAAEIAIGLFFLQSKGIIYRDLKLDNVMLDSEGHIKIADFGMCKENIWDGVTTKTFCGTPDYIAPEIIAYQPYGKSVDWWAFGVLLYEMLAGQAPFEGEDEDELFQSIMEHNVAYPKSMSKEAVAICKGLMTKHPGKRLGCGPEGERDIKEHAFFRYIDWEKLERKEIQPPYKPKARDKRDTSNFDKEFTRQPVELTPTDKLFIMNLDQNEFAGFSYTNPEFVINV
# [3] = target: T1, Serine/threonine-protein kinase Sgk2 (Homo sapiens) (UniProt Q9HBY8); assay: Inhibition of human full length SGK2 expressed in baculovirus assessed as substrate phosphorylation using fluorescence-labelled peptides as substrate at 0.2 uM after 90 mins by microfluidic peptide phosphorylation assay
# T1 sequence (whole entry): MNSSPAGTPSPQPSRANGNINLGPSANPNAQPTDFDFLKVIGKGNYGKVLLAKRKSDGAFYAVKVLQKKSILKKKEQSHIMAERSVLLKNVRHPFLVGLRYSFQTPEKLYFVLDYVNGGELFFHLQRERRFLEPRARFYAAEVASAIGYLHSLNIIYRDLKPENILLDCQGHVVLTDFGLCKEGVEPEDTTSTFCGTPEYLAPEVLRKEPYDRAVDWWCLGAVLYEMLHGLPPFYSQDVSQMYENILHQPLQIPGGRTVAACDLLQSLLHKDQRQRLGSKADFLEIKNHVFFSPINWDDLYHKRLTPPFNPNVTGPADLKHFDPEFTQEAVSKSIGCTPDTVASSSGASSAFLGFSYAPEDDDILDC
# [4] = target: Fibroblast growth factor receptor 4 (Homo sapiens) (UniProt P22455); assay: Inhibition of human FGFR4 catalytic domain expressed in baculovirus assessed as substrate phosphorylation using fluorescence-labelled peptides as substrate at 95 uM after 90 mins by microfluidic peptide phosphorylation assay
# Chain of Fibroblast growth factor receptor 4 (Homo sapiens) (P22455 22-802 limits assumed): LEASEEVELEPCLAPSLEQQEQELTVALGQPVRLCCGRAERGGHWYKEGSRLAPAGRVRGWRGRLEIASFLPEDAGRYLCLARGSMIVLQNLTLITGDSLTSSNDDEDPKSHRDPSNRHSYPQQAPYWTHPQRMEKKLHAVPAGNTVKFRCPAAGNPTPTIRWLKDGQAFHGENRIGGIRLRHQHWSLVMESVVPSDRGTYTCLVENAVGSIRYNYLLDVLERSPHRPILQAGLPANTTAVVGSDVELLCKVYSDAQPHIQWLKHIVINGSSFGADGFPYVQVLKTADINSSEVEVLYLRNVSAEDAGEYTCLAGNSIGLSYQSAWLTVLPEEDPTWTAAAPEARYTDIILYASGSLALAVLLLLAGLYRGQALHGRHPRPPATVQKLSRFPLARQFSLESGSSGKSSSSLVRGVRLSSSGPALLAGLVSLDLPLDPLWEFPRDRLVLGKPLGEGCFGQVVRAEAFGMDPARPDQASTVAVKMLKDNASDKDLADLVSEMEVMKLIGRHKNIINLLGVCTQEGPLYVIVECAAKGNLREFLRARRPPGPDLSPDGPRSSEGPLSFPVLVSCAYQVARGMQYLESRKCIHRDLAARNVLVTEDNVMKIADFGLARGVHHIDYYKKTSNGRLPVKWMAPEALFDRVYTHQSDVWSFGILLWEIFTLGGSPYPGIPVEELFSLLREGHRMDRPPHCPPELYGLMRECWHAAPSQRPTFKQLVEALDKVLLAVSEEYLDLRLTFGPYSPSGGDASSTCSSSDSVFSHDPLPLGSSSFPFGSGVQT
# [5] = target: T2, Protein kinase C epsilon type (Homo sapiens) (UniProt Q02156); assay: Inhibition of human truncated PKC epsilon expressed in baculovirus assessed as substrate phosphorylation using fluorescence-labelled peptides as substrate at 1000 uM after 90 mins by microfluidic peptide phosphorylation assay
# T2 sequence (whole entry): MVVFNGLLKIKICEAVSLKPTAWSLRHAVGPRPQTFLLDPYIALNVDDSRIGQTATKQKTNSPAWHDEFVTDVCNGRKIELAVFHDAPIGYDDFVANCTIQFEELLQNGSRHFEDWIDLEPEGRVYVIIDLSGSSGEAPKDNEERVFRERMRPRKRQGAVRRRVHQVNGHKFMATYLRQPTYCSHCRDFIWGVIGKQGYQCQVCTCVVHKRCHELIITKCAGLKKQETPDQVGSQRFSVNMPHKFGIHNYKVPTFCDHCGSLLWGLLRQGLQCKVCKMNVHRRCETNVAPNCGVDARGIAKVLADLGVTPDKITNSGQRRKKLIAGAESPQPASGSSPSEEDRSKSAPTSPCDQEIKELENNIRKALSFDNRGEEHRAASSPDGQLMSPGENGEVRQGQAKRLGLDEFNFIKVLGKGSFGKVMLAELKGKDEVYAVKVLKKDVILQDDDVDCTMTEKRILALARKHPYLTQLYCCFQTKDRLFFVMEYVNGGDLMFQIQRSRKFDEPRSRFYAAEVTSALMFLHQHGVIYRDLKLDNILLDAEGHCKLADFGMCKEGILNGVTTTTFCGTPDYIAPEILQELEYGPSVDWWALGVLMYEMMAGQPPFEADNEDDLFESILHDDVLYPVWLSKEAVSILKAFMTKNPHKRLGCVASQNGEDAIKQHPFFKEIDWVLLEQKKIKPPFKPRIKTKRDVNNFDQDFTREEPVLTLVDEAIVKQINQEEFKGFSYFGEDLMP
# [6] = target: Tyrosine-protein kinase Lck (Homo sapiens) (UniProt P06239); assay: Inhibition of human full length LCK expressed in baculovirus assessed as substrate phosphorylation using fluorescence-labelled peptides as substrate at 70 uM after 90 mins by microfluidic peptide phosphorylation assay
# Chain of Tyrosine-protein kinase Lck (Homo sapiens) (P06239 2-509 limits assumed): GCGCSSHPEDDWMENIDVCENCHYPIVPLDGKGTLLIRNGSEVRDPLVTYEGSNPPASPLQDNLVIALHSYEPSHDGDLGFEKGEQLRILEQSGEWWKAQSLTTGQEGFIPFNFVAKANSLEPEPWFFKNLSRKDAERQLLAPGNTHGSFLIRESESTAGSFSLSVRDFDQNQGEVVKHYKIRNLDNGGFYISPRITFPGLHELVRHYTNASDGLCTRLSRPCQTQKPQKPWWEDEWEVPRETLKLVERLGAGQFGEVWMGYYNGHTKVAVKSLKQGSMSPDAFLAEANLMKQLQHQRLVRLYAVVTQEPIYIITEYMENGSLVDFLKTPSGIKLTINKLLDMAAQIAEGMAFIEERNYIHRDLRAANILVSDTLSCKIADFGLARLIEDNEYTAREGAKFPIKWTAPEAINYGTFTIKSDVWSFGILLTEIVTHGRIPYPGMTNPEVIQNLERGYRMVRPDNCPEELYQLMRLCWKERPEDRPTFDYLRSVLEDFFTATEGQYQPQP
# [7] = target: Tyrosine-protein kinase Lck (Homo sapiens) (UniProt P06239); assay: Inhibition of human full length LCK expressed in baculovirus assessed as substrate phosphorylation using fluorescence-labelled peptides as substrate at 420 uM after 90 mins by microfluidic peptide phosphorylation assay
# [8] = tested on: Tyrosine-protein kinase ABL1 (Homo sapiens), P00519 [H396P]; assay: Inhibition of human truncated ABL H396P mutant expressed in baculovirus assessed as substrate phosphorylation using fluorescence-labelled peptides as substrate at 420 uM after 90 mins by microfluidic peptide phosphorylation assay
# [9] = target: T3, Serine/threonine-protein kinase Chk1 (Homo sapiens) (UniProt O14757); assay: Inhibition of human full length CHK1 expressed in baculovirus assessed as substrate phosphorylation using fluorescence-labelled peptides as substrate at 420 uM after 90 mins by microfluidic peptide phosphorylation assay
# T3 sequence (whole entry): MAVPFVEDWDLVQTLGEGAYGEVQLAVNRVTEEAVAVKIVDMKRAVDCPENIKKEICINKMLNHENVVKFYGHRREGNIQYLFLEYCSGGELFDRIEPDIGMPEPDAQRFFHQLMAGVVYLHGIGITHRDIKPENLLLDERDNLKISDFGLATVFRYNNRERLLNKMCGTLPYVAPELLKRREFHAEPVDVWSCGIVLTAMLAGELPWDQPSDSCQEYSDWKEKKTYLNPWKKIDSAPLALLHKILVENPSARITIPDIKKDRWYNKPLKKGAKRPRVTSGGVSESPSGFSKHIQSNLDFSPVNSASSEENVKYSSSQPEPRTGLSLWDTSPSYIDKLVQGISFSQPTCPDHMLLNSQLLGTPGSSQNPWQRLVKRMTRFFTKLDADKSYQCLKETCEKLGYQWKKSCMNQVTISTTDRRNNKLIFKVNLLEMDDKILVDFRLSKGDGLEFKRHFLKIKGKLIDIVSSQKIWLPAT
# [10] = target: T4, Calcium/calmodulin-dependent protein kinase type IV (Homo sapiens) (UniProt Q16566); assay: Inhibition of human full length CAMK4 expressed in baculovirus assessed as substrate phosphorylation using fluorescence-labelled peptides as substrate at 420 uM after 90 mins by microfluidic peptide phosphorylation assay
# T4 sequence (whole entry): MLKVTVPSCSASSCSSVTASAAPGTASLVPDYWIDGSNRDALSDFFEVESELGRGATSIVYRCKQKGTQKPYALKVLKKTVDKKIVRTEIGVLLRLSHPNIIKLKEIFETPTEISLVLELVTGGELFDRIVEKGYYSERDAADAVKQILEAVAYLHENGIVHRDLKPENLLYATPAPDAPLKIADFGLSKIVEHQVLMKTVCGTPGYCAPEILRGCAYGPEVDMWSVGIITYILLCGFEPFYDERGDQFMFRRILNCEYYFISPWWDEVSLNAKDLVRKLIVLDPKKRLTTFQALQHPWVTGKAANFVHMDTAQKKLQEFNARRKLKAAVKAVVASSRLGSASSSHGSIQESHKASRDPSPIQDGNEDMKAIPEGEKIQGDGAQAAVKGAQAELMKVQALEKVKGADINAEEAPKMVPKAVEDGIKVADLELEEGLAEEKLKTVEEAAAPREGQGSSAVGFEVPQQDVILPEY
smiles,measurement,setting,value
NCC1CCN(c2ncnc3[nH]ccc23)CC1,inhibition,[1],68%
NC1(Cc2ccc(Cl)cc2)CCN(c2ncnc3[nH]ccc23)CC1,inhibition,[2],0%
Clc1ccc(C2(c3ccc(-c4ncnc5[nH]cnc45)cc3)CCNCC2)cc1,inhibition,[3],23.5%
NCCc1ccc(-c2ncnc3[nH]cnc23)cc1,inhibition,[4],10%
c1cnc2[nH]ccc2c1,inhibition,[5],38%
CNCc1ccc(-c2ncnc3[nH]cnc23)cc1,inhibition,[6],38%
c1nc(N2CCOCC2)c2nc[nH]c2n1,inhibition,[7],67.5%
same,inhibition,[8],71%
same,inhibition,[9],88.5%
same,inhibition,[10],62%
